Source: patent US20220110847A1, “USE OF COOLING MATERIALS FOR THE REDUCTION OR INHIBITION OF SALTINESS IN ORALLY ADMINISTERED, IMBIBED OR INGESTED CONSUMER PRODUCTS” (TAKASAGO INTERNATIONAL CORPORATION, priority 2019, published 2022)

Assay: Saltiness rating of toothpaste samples by an expert panel
Format: in vivo
Conditions: for perceived salty taste compared with both the Control and the other tested cooling materials: cooling material added to commercial toothpaste with approximately 50% sodium bicarbonate, expert panel; for Average RATING (saltiness): saltiness scale of 1 (less salty) to 7 (most salty), 7 evaluators, cooling material at 0.2 % (table) in commercial toothpaste with approximately 50% by weight sodium bicarbonate, Control 6.43
Description: A sample of a commercially available toothpaste containing approximately 50% by weight of sodium bicarbonate was used as a Control. […] All of the toothpaste samples, including the Control, were evaluated by an expert panel comprised of 4 Flavorist(s), 2 Flavor Lab Managers, and 1 Flavor Lab Technician. Each sample was assigned a number by each evaluator to indicate saltiness, using a saltiness scale of 1(less salty) to 7(most salty).

Structure (SMILES)	perceived salty taste compared with both the Control and the other tested cooling materials	Average RATING (saltiness)
CC(=O)C1CCC(C)CC1O (centres unmarked) [1-(2-hydroxy-4-methylcyclohexyl)-ethanone]	less salty taste	2.43
C=C(C)[C@@H]1CC[C@@H](C)C[C@H]1O [1-isopulegol, reference compound]	–	6.29
CNC(=O)C(C)(C(C)C)C(C)C [2-isopropyl-N,2,3-trimethylbutyramide, reference compound]	–	6
CC(C)[C@@H]1CC[C@@H](C)C[C@H]1OCC(O)CO (stereo partly drawn) [3-L-menthoxypropan-1,2-diol]	less salty taste	3.00
CC(O)CC(=O)O[C@@H]1C[C@H](C)CC[C@H]1C(C)C (stereo partly drawn) [L-menthyl-3-hydroxybutanoate]	less salty taste	3.86
CC1CCC(C(C)C)C(OC(=O)C(C)O)C1 (centres unmarked) [Menthyl Lactate, reference compound]	–	6.43
COc1ccc(NC(=O)C2CC(C)CCC2C(C)C)cc1 (centres unmarked) [N-(4-methoxyphenyl)-p-menthanecarboxamide]	less salty taste	5.57
CCOC(=O)CNC(=O)C1CC(C)CCC1C(C)C (centres unmarked) [N-[(ethoxycarbonyl)methyl)-p-menthane-3-carboxamide, reference compound]	–	6.43
CCNC(=O)C1CC(C)CCC1C(C)C (centres unmarked) [N-ethyl-5-methyl-2-propan-2-ylcyclohexane-1-carboxamide, reference compound]	–	6.57
CC1CCC(C(C)C)C(OCCO)C1 (centres unmarked) [hydroxyethyl-menthyl ether]	less salty taste	5.57
CC1CCC(C(C)(C)O)C(O)C1 (centres unmarked) [p-menthane-3,8-diol]	less salty taste	5.86
